# Measurements reported in ChEMBL document CHEMBL4808202, “Evaluation of artemisinin derivative artemether as a fluconazole potentiator through inhibition of Pdr5” (2021).
# Calls of active or inactive are those of the source. The rule behind the calls is not given here.
# Tests used:
# [1] = system: Candida albicans; assay: Potentiation of amphotericin B-induced antifungal activity against Candida albicans SC5314 assessed as fungal growth at 100 microM measured after 24 hrs in presence of amphotericin B by absorbance based analysis relative to amphotericin B-treated control; type: functional
# [2] = system: Saccharomyces cerevisiae; assay: Potentiation of fluconazole-induced antifungal activity against Saccharomyces cerevisiae YNL033 overexpressing PDR5 assessed as fungal growth at 100 uM measured after 24 hrs by absorbance based analysis relative to fluconazole-treated control; type: functional
# [3] = system: Candida albicans; assay: Potentiation of fluconazole-induced antifungal activity against Candida albicans SC5314 assessed as inhibition of fungal filamentation by measuring reduction in fungal hyphae growth in YEPD containing 10% serum medium at 100 uM incubated for 1 hr in presence of fluconazole by microscopic analysis; type: functional, organism-based
# [4] = system: Saccharomyces cerevisiae; assay: Increase in intracellular fluconazole accumulation in Saccharomyces cerevisiae YNL032 harboring pdr5 deletion mutant at 400 uM measured after 4 hrs by HPLC analysis; type: functional, cell-based
# [5] = system: Candida albicans; assay: Antifungal activity against fluconazole-resistant Candida albicans CNL012 assessed as fungal growth at 100 uM measured after 24 hrs by absorbance based analysis relative to vehicle-treated control; type: functional
# [6] = system: Saccharomyces cerevisiae; assay: Antifungal activity against Saccharomyces cerevisiae harboring pdr15 delta mutant assessed as fungal growth at 1600 uM measured after 24 hrs by absorbance based analysis relative to control; type: functional
# [7] = system: Saccharomyces cerevisiae; assay: Potentiation of fluconazole-induced antifungal activity against Saccharomyces cerevisiae BY4742 assessed as inhibition of fungal growth at 100 uM measured after 24 hrs in presence of fluconazole by absorbance based analysis relative to fluconazole-treated control; type: functional
# [8] = system: Candida albicans; assay: Recovery of fluconazole susceptibility against fluconazole-resistant Candida albicans CNL012 assessed as inhibition of fungal growth at 100 uM measured every 15 mins for 24 hrs by absorbance based analysis; type: functional, organism-based
# [9] = system: [Candida] auris; assay: Potentiation of fluconazole-induced antifungal activity against Candida auris NL002 assessed as fungal growth at 100 uM measured after 24 hrs in presence of fluconazole by absorbance based analysis relative to vehicle-treated control; type: functional, Candidozyma auris
# [10] = system: [Candida] auris; assay: Potentiation of fluconazole-induced antifungal activity against Candida auris NL002 assessed as fungal growth at 100 uM measured after 24 hrs in presence of fluconazole by absorbance based analysis relative to fluconazole-treated control; type: functional, Candidozyma auris
# [11] = system: Saccharomyces cerevisiae; assay: Antifungal activity against Saccharomyces cerevisiae harboring ybt1 delta mutant assessed as fungal growth at 1600 uM measured after 24 hrs by absorbance based analysis relative to control; type: functional
# [12] = system: Candida tropicalis; assay: Potentiation of fluconazole-induced antifungal activity against Candida tropicalis NL001 assessed as fungal growth at 100 uM measured after 24 hrs in presence of fluconazole by absorbance based analysis relative to fluconazole-treated control; type: functional
# [13] = system: [Candida] auris; assay: Antifungal activity against Candida auris NL002 assessed as fungal growth at 100 uM measured after 24 hrs by absorbance based analysis relative to vehicle-treated control; type: functional, Candidozyma auris
# [14] = system: Candida tropicalis; assay: Potentiation of fluconazole-induced antifungal activity against Candida tropicalis NL001 assessed as fungal growth at 100 uM measured after 24 hrs in presence of fluconazole by absorbance based analysis relative to vehicle treated control; type: functional
# [15] = system: Saccharomyces cerevisiae; assay: Antifungal activity against Saccharomyces cerevisiae harboring vmr1 delta mutant assessed as fungal growth at 1600 uM measured after 24 hrs by absorbance based analysis relative to control; type: functional
# [16] = system: Candida parapsilosis; assay: Potentiation of fluconazole-induced antifungal activity against Candida parapsilosis NL001 assessed as fungal growth at 100 uM measured after 24 hrs in presence of fluconazole by absorbance based analysis relative to vehicle-treated control; type: functional
# [17] = system: Saccharomyces cerevisiae; assay: Antifungal activity against Saccharomyces cerevisiae harboring pdr10 delta mutant assessed as fungal growth at 1600 uM measured after 24 hrs by absorbance based analysis relative to control; type: functional
# [18] = system: Candida albicans; assay: Antifungal activity against fluconazole-resistant Candida albicans CNL011 assessed as fungal growth at 100 uM measured after 24 hrs by absorbance based analysis relative to vehicle-treated control; type: functional
# [19] = system: Saccharomyces cerevisiae; assay: Antifungal activity against Saccharomyces cerevisiae BY4742 assessed as fungal growth at 1600 uM measured after 24 hrs by absorbance based analysis relative to control; type: functional
# [20] = system: Saccharomyces cerevisiae; assay: Antifungal activity against Saccharomyces cerevisiae harboring yor1 delta mutant assessed as fungal growth at 1600 uM measured after 24 hrs by absorbance based analysis relative to control; type: functional
# [21] = system: Cryptococcus neoformans; assay: Antifungal activity against Cryptococcus neoformans H99 assessed as inhibition of fungal growth at 0.2 uM measured every 15 mins for 24 hrs by absorbance based analysis; type: functional, organism-based
# [22] = system: Saccharomyces cerevisiae; assay: Inhibition of PDR5 in Saccharomyces cerevisiae BY4742 assessed as inhibition of R6G efflux incubated for 4 hrs followed by R6G addition and measured after 1.5 hrs by fluorescence based analysis; settings: dose 100-400 µM, time 5.5 hrs
# [23] = system: Candida albicans; assay: Antifungal activity against Candida albicans SC5314 assessed as inhibition of fungal growth by measuring decrease in OD600 at 100 microM measured after 24 hrs by absorbance based analysis; type: functional
# [24] = system: Saccharomyces cerevisiae; assay: Antifungal activity against Saccharomyces cerevisiae harboring ynr070w delta mutant assessed as fungal growth at 1600 uM measured after 24 hrs by absorbance based analysis relative to control; type: functional
# [25] = system: Saccharomyces cerevisiae; assay: Antifungal activity against Saccharomyces cerevisiae harboring pdr5 delta mutant assessed as fungal growth at 1600 uM measured after 24 hrs by absorbance based analysis relative to control; type: functional
# [26] = system: Candida albicans; assay: Potentiation of fluconazole-induced antifungal activity against Candida albicans CNL002 harboring cdr1 delta mutant assessed as inhibition of fungal growth at 100 uM measured after 24 hrs by absorbance based analysis; type: functional, organism-based
# [27] = system: Cryptococcus neoformans; assay: Potentiation of fluconazole-induced antifungal activity against Cryptococcus neoformans H99 assessed as inhibition of fungal growth at 0.2 uM measured every 15 mins for 24 hrs in presence of fluconazole by absorbance based analysis; type: functional, organism-based
# [28] = system: Candida albicans; assay: Potentiation of micafungin-induced antifungal activity against Candida albicans SC5314 assessed as fungal growth at 100 microM measured after 24 hrs in presence of micafungin by absorbance based analysis relative to micafungin-treated control; type: functional
# [29] = system: Saccharomyces cerevisiae; assay: Antifungal activity against Saccharomyces cerevisiae harboring ycf1 delta mutant assessed as fungal growth at 1600 uM measured after 24 hrs by absorbance based analysis relative to control; type: functional
# [30] = system: Candida albicans; assay: Recovery of fluconazole susceptibility against fluconazole-resistant Candida albicans CNL011 assessed as inhibition of fungal growth at 100 uM measured every 15 mins for 24 hrs by absorbance based analysis; type: functional, organism-based
# [31] = system: Saccharomyces cerevisiae; assay: Antifungal activity against Saccharomyces cerevisiae harboring yol075c delta mutant assessed as fungal growth at 1600 uM measured after 24 hrs by absorbance based analysis relative to control; type: functional
# [32] = system: Saccharomyces cerevisiae; assay: Antifungal activity against Saccharomyces cerevisiae harboring bpt1 delta mutant assessed as fungal growth at 1600 uM measured after 24 hrs by absorbance based analysis relative to control; type: functional
# [33] = system: Saccharomyces cerevisiae BY4741; assay: Inhibition of PDR5 in Saccharomyces cerevisiae BY4741 assessed as intracellular accumulation of fluconazole at 400 uM measured per gm of cells after 4 hrs by HPLC analysis (reference value: 11.3 nmol); type: cell-based
# [34] = system: Saccharomyces cerevisiae; assay: Antifungal activity against Saccharomyces cerevisiae harboring pdr12 delta mutant assessed as fungal growth at 1600 uM measured after 24 hrs by absorbance based analysis relative to control; type: functional
# [35] = system: Saccharomyces cerevisiae; assay: Antifungal activity against Saccharomyces cerevisiae harboring snq2 delta mutant assessed as fungal growth at 1600 uM measured after 24 hrs by absorbance based analysis relative to control; type: functional
# [36] = system: Saccharomyces cerevisiae; assay: Inhibition of PDR5 in Saccharomyces cerevisiae BY4742 assessed as inhibition of R6G efflux at 400 uM incubated for 4 hrs followed by R6G addition and measured after 1.5 hrs by fluorescence based analysis; settings: time 5.5 hrs
# [37] = system: Candida parapsilosis; assay: Antifungal activity against Candida parapsilosis NL001 assessed as fungal growth at 100 uM measured after 24 hrs by absorbance based analysis relative to vehicle-treated control; type: functional
# [38] = system: Candida albicans; assay: Potentiation of fluconazole-induced antifungal activity against Candida albicans SC5314 assessed as fungal growth at 100 microM measured after 24 hrs in presence of fluconazole by absorbance based analysis relative to fluconazole-treated control; type: functional
# [39] = system: Candida parapsilosis; assay: Potentiation of fluconazole-induced antifungal activity against Candida parapsilosis NL001 assessed as fungal growth at 100 uM measured after 24 hrs in presence of fluconazole by absorbance based analysis relative to fluconazole-treated control; type: functional
# [40] = system: Saccharomyces cerevisiae; assay: Antifungal activity against Saccharomyces cerevisiae harboring nft1 delta mutant assessed as fungal growth at 1600 uM measured after 24 hrs by absorbance based analysis relative to control; type: functional
# [41] = system: Candida albicans; assay: Antifungal activity against Candida albicans SC5314 assessed as inhibition of fungal filamentation in YEPD containing 10% serum medium at 100 uM incubated for 1 hr by microscopic analysis; type: functional, organism-based
# [42] = system: Saccharomyces cerevisiae; assay: Antifungal activity against Saccharomyces cerevisiae harboring pdr11 delta mutant assessed as fungal growth at 1600 uM measured after 24 hrs by absorbance based analysis relative to control; type: functional
# [43] = system: Candida albicans; assay: Antifungal activity against Candida albicans SC5314 assessed as inhibition of fungal filamentation in Spider medium at 100 uM incubated for 1 hr by microscopic analysis; type: functional, organism-based
# [44] = system: Saccharomyces cerevisiae; assay: Antifungal activity against Saccharomyces cerevisiae BY4742 assessed as inhibition of fungal growth at 100 uM measured after 24 hrs by absorbance based analysis relative to vehicle-treated control; type: functional
# [45] = system: Saccharomyces cerevisiae; assay: Potentiation of fluconazole-induced antifungal activity against Saccharomyces cerevisiae BY4741 assessed as fungal growth at 100 uM measured after 24 hrs by absorbance based analysis relative to fluconazole-treated control; type: functional
# [46] = system: Saccharomyces cerevisiae; assay: Antifungal activity against Saccharomyces cerevisiae harboring aus1 delta mutant assessed as fungal growth at 1600 uM measured after 24 hrs by absorbance based analysis relative to control; type: functional
# [47] = system: Candida albicans; assay: Potentiation of fluconazole-induced antifungal activity against Candida albicans SC5314 assessed as inhibition of fungal filamentation by measuring reduction in fungal hyphae growth in Spider medium at 100 uM incubated for 1 hr in presence of fluconazole by microscopic analysis; type: functional, organism-based
# [48] = system: Candida tropicalis; assay: Antifungal activity against Candida tropicalis NL001 assessed as fungal growth at 100 uM measured after 24 hrs by absorbance based analysis relative to vehicle-treated control; type: functional
# [49] = system: Saccharomyces cerevisiae; assay: Antifungal activity against Saccharomyces cerevisiae YNL013 harboring pdr5 delta mutant assessed as inhibition of fungal growth at 100 uM measured after 24 hrs by absorbance based analysis; type: functional, organism-based
# [50] = system: Saccharomyces cerevisiae; assay: Antifungal activity against Saccharomyces cerevisiae harboring adp1 delta mutant assessed as fungal growth at 1600 uM measured after 24 hrs by absorbance based analysis relative to control; type: functional
structure (smiles),measurement,setting,value
CO[C@H]1O[C@@H]2O[C@@]3(C)CC[C@H]4[C@H](C)CC[C@@H]([C@H]1C)[C@@]24OO3 [ARTEMETHER],Activity,[1],96.1%
same,Activity,[2],70.9%
same,Activity,[3],Active
same,Activity,[4],Active
same,Activity,[5],91.6%
same,Activity,[6],70.2%
same,inhibition at 100 µM,[7],68.8%
same,Activity,[8],Active
same,Activity,[9],44.7%
same,Activity,[10],48.4%
same,Activity,[11],69.2%
same,Activity,[12],81.9%
same,Activity,[13],57.6%
same,Activity,[14],83.3%
same,Activity,[15],65.6%
same,Activity,[16],41.5%
same,Activity,[17],67.1%
same,Activity,[18],86.9%
same,Activity,[19],71.9%
same,Activity,[20],75.4%
same,Activity,[21],Active
same,inhibition,[22],Dose-Dependent Effect
same,inhibition at 100 µM,[23],10.1%
same,Activity,[24],72.7%
same,Activity,[25],29.8%
same,Activity,[26],Active
same,Activity,[27],Active
same,Activity,[28],95.2%
same,Activity,[29],60.3%
same,Activity,[30],Active
same,Activity,[31],67.9%
same,Activity,[32],71.8%
same,Activity,[33],13.1 nmol
same,Activity,[34],71.2%
same,Activity,[35],67.5%
same,inhibition,[36],Active
same,Activity,[37],68.6%
same,Activity,[38],52.6%
same,Activity,[39],41.5%
same,Activity,[40],72.3%
same,Activity,[41],inactive
same,Activity,[42],77.8%
same,Activity,[43],inactive
same,inhibition at 100 µM,[44],45.8%
same,Activity,[45],76.5%
same,Activity,[46],71%
same,Activity,[47],Active
same,Activity,[48],88.1%
same,Activity,[49],Active
same,Activity,[50],68%
C[C@H]1[C@H](OC(=O)CCC(=O)O)O[C@@H]2O[C@@]3(C)CC[C@H]4[C@H](C)CC[C@@H]1[C@@]24OO3 [ARTESUNATE],Activity,[3],Active
same,Activity,[23],inactive
same,Activity,[28],96.9%
same,Activity,[38],42.9%
same,Activity,[41],inactive
same,Activity,[43],inactive
same,Activity,[47],Active
C[C@@H]1CC[C@H]2[C@@H](C)C(=O)O[C@@H]3O[C@@]4(C)CC[C@@H]1[C@]32OO4 [ARTEMISININ],Activity,[1],96.1%
same,Activity,[3],Active
same,inhibition at 100 µM,[23],4.9%
same,Activity,[28],97.7%
same,Activity,[38],22.6%
same,Activity,[41],inactive
same,Activity,[43],inactive
same,Activity,[47],Active
